{"source": "patent US11919901B2", "about": "(Syndax Pharmaceuticals, Inc., priority 2021, dated 2024)", "molecular_target": "Menin-MLL (Homo sapiens (Human), UniProt O00255)", "sequence (O00255 whole entry)": "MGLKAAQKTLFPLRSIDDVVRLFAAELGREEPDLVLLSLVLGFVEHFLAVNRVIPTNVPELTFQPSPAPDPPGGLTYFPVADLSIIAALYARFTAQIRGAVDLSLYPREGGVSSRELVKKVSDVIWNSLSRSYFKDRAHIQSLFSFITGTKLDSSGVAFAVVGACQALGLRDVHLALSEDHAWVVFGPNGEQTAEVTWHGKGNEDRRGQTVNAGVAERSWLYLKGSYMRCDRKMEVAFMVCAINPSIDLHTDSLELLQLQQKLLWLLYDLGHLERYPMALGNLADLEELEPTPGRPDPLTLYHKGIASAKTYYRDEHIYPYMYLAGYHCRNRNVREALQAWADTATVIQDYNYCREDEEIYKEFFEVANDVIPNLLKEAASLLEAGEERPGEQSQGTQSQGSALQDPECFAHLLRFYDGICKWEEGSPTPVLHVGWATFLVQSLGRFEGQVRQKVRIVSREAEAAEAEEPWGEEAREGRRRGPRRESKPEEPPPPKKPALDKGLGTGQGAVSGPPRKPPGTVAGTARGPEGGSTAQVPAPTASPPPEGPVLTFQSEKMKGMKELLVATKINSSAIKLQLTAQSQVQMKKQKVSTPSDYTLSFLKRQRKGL", "test": "Determination of binding constants (Ki) to Menin-MLL (HTRF)", "conditions": "HTRF, 0.25 nM H-FL-Menin, 3.2 nM FITC-MLL-4-43, 24 hr incubation; for Ki: read-out: Menin-MLL Ki HTRF Assay: Ki"}
{"smiles": "CC(C)N(C(=O)c1cc(F)ccc1Oc1cncnc1N1CC2(CCN(C[C@@H]3CC[C@@H](NS(=N)(=O)c4ccccc4)CO3)CC2)C1)C(C)C", "note": "(mixture of isomers) [Compound 228, 5-Fluoro-N,N-diisopropyl-2-((4-(7-(((2S,5R)-5-(phenylsulfonoamidimidamido)tetrahydro-2H-pyran-2-yl)methyl)-2,7-diazaspiro[3.5]nonan-2-yl)pyrimidin-5-yl)oxy)benzamide]", "values": [{"measurement": "Ki", "value": "< 1", "unit": "nM"}]}
{"smiles": "CC[S@@](=N)(=O)N[C@@H]1CC[C@@H](CN2CCC3(CC2)CN(c2ncncc2Oc2ccc(F)cc2C(=O)N(C(C)C)C(C)C)C3)OC1", "note": "(single isomer, unassigned) [Compound 226]", "values": [{"measurement": "Ki", "value": "< 1", "unit": "nM"}]}
{"smiles": "CC[S@](=N)(=O)N[C@@H]1CC[C@@H](CN2CCC3(CC2)CN(c2ncncc2Oc2ccc(F)cc2C(=O)N(C(C)C)C(C)C)C3)OC1", "note": "(single isomer, unassigned) [Compound 227]", "values": [{"measurement": "Ki", "value": "< 1", "unit": "nM"}]}
{"smiles": "CC(C)N(C(=O)c1cc(F)ccc1Oc1cncnc1N1CC2(CCN(C[C@@H]3CC[C@@H](N[S@@](=N)(=O)c4ccccc4)CO3)CC2)C1)C(C)C", "note": "(single isomer, unassigned) [Compound 229]", "values": [{"measurement": "Ki", "value": "< 1", "unit": "nM"}]}
{"smiles": "CC(C)N(C(=O)c1cc(F)ccc1Oc1cncnc1N1CC2(CCN(C[C@@H]3CC[C@@H](N[S@](=N)(=O)c4ccccc4)CO3)CC2)C1)C(C)C", "note": "(single isomer, unassigned) [Compound 230]", "values": [{"measurement": "Ki", "value": "< 1", "unit": "nM"}]}
{"smiles": "CCS(=O)(=O)N[C@@H]1CC[C@@H](CN2CCC3(CC2)CN(c2ncncc2Oc2ccc(F)cc2C(=O)N(C(C)C)[C@@H]2CC[C@H]2O)C3)OC1", "note": "(single isomer, unassigned) [Compound 256]", "values": [{"measurement": "EC50", "value": "< 50", "unit": "nM"}, {"measurement": "Ki", "value": "< 1", "unit": "nM"}]}
{"smiles": "CCS(=O)(=O)N[C@@H]1CC[C@@H](CN2CCC3(CC2)CN(c2ncncc2Oc2ccc(F)cc2C(=O)N(C(C)C)[C@H]2CC[C@@H]2O)C3)OC1", "note": "(single isomer, unassigned) [Compound 257]", "values": [{"measurement": "EC50", "value": "< 50", "unit": "nM"}, {"measurement": "Ki", "value": "< 1", "unit": "nM"}]}
{"smiles": "CCN(C(=O)c1cc(F)ccc1Oc1cncnc1N1CC2(CCN(C[C@H]3CC[C@H](NS(=O)(=O)CC)CO3)CC2)C1)C(C)C", "note": "(stereo in doubt) [Compound 52, N-ethyl-2-((4-(7-(((2R,5S)-5-(ethylsulfonamido)tetrahydro-2H-pyran-2-yl)methyl)-2,7-diazaspiro[3.5]nonan-2-yl)pyrimidin-5-yl)oxy)-5-fluoro-N-isopropylbenzamide]", "values": [{"measurement": "EC50", "value": "< 50", "unit": "nM"}]}
{"smiles": "CNS(=O)(=O)N[C@H]1CC[C@H](CN2CCC3(CC2)CN(c2ncncc2Oc2ccc(F)cc2C(=O)N(C(C)C)C2CC2)C3)OC1", "note": "(stereo in doubt) [Compound 146, N-Cyclopropyl-5-fluoro-N-isopropyl-2-((4-(7-(((2R,5S)-5-((N-methylsulfamoyl)amino)tetrahydro-2H-pyran-2-yl)methyl)-2,7-diazaspiro[3.5]nonan-2-yl)pyrimidin-5-yl)oxy)benzamide]", "values": [{"measurement": "Ki", "value": "< 1", "unit": "nM"}]}
{"smiles": "CC(C)N(CC(F)(F)F)C(=O)c1cc(F)ccc1Oc1nncnc1N1CC2(CCN(C[C@H]3CC[C@H](NS(=O)(=O)N4CCC4)CO3)CC2)C1", "note": "(stereo in doubt) [Compound 194, 2-((5-(7-(((2R,5S)-5-(Azetidine-1-sulfonamido)tetrahydro-2H-pyran-2-yl)methyl)-2,7-diazaspiro[3.5]nonan-2-yl)-1,2,4-triazin-6-yl)oxy)-5-fluoro-N-isopropyl-N-(2,2,2-trifluoroethyl)benzamide]", "values": [{"measurement": "Ki", "value": "< 1", "unit": "nM"}]}
{"smiles": "CCN(C(=O)c1cc(F)ccc1Oc1cncnc1N1CC2(CCN(C[C@@H]3CC[C@@H](NS(=O)(=O)C(C)C)CO3)CC2)C1)C(C)C", "note": "[Compound 3, N-ethyl-5-fluoro-N-isopropyl-2-((4-(7-(((2S,5R)-5-((1-methylethyl)sulfonamido)tetrahydro-2H-pyran-2-yl)methyl)-2,7-diazaspiro[3.5]nonan-2-yl)pyrimidin-5-yl)oxy)benzamide]", "values": [{"measurement": "EC50", "value": "< 50", "unit": "nM"}, {"measurement": "Ki", "value": "< 1", "unit": "nM"}]}
{"smiles": "CCN(C(=O)c1cc(F)ccc1Oc1cncnc1N1CC2(CCN(C[C@@H]3CC[C@@H](NS(=O)(=O)C4COC4)CO3)CC2)C1)C(C)C", "note": "[Compound 5, N-ethyl-5-fluoro-N-isopropyl-2-((4-(7-(((2S,5R)-5-(oxetane-3-sulfonamido)tetrahydro-2H-pyran-2-yl)methyl)-2,7-diazaspiro[3.5]nonan-2-yl)pyrimidin-5-yl)oxy)benzamide]", "values": [{"measurement": "EC50", "value": "< 50", "unit": "nM"}, {"measurement": "Ki", "value": "< 1", "unit": "nM"}]}
{"smiles": "CCN(C(=O)c1cc(F)ccc1Oc1cncnc1N1CC2(CCN(C[C@@H]3CC[C@@H](NS(=O)(=O)CC4CC4)CO3)CC2)C1)C(C)C", "note": "[Compound 7, 2-((4-(7-(((2S,5R)-5-((cyclopropylmethyl)sulfonamido)tetrahydro-2H-pyran-2-yl)methyl)-2,7-diazaspiro[3.5]nonan-2-yl)pyrimidin-5-yl)oxy)-N-ethyl-5-fluoro-N-isopropylbenzamide]", "values": [{"measurement": "EC50", "value": "< 50", "unit": "nM"}, {"measurement": "Ki", "value": "< 1", "unit": "nM"}]}
{"smiles": "CCN(C(=O)c1cc(F)ccc1Oc1cncnc1N1CC2(CCN(C[C@@H]3CC[C@@H](NS(=O)(=O)CCOC)CO3)CC2)C1)C(C)C", "note": "[Compound 8, N-ethyl-5-fluoro-N-isopropyl-2-((4-(7-(((2S,5R)-5-((2-methoxyethyl)sulfonamido)tetrahydro-2H-pyran-2-yl)methyl)-2,7-diazaspiro[3.5]nonan-2-yl)pyrimidin-5-yl)oxy)benzamide]", "values": [{"measurement": "EC50", "value": "< 50", "unit": "nM"}, {"measurement": "Ki", "value": "< 1", "unit": "nM"}]}
{"smiles": "CCCS(=O)(=O)N[C@@H]1CC[C@@H](CN2CCC3(CC2)CN(c2ncncc2Oc2ccc(F)cc2C(=O)N(CC)C(C)C)C3)OC1", "note": "[Compound 9, N-ethyl-5-fluoro-N-isopropyl-2-((4-(7-(((2S,5R)-5-(propylsulfonamido)tetrahydro-2H-pyran-2-yl)methyl)-2,7-diazaspiro[3.5]nonan-2-yl)pyrimidin-5-yl)oxy)benzamide]", "values": [{"measurement": "EC50", "value": "< 50", "unit": "nM"}, {"measurement": "Ki", "value": "< 1", "unit": "nM"}]}
{"smiles": "CCN(C(=O)c1cc(F)ccc1Oc1cncnc1N1CC2(CCN(C[C@@H]3CC[C@@H](NS(=O)(=O)C4CCOC4)CO3)CC2)C1)C(C)C", "note": "(stereo partly drawn) [Compound 10, N-ethyl-5-fluoro-N-isopropyl-2-((4-(7-(((2S,5R)-5-((tetrahydrofuran)-3-sulfonamido)tetrahydro-2H-pyran-2-yl)methyl)-2,7-diazaspiro[3.5]nonan-2-yl)pyrimidin-5-yl)oxy)benzamide]", "values": [{"measurement": "EC50", "value": "< 50", "unit": "nM"}, {"measurement": "Ki", "value": "< 1", "unit": "nM"}]}
{"smiles": "CC(C)N(C(=O)c1cc(F)ccc1Oc1cncnc1N1CC2(CCN(C[C@@H]3CC[C@@H](NC(=O)OC(C)(C)C)CO3)CC2)C1)C1CC1", "note": "[Compound 17, tert-butyl ((3R,6S)-6-((2-(5-(2-(cyclopropyl(isopropyl)carbamoyl)-4-fluorophenoxy)pyrimidin-4-yl)-2,7-diazaspiro[3.5]nonan-7-yl)methyl)tetrahydro-2H-pyran-3-yl)carbamate]", "values": [{"measurement": "EC50", "value": "< 50", "unit": "nM"}, {"measurement": "Ki", "value": "< 1", "unit": "nM"}]}
{"smiles": "CC(C)N(C(=O)c1cc(F)ccc1Oc1cncnc1N1CC2(CCN(C[C@@H]3CC[C@@H](NS(C)(=O)=O)CO3)CC2)C1)C1CC1", "note": "[Compound 18, N-cyclopropyl-5-fluoro-N-isopropyl-2-((4-(7-(((2S,5R)-5-(methylsulfonamido)tetrahydro-2H-pyran-2-yl)methyl)-2,7-diazaspiro[3.5]nonan-2-yl)pyrimidin-5-yl)oxy)benzamide]", "values": [{"measurement": "EC50", "value": "< 50", "unit": "nM"}, {"measurement": "Ki", "value": "< 1", "unit": "nM"}]}
{"smiles": "CC(C)N(C(=O)c1cc(F)ccc1Oc1cncnc1N1CC2(CCN(C[C@@H]3CC[C@@H](NS(=O)(=O)C(C)C)CO3)CC2)C1)C1CC1", "note": "[Compound 20, N-cyclopropyl-5-fluoro-N-isopropyl-2-((4-(7-(((2S,5R)-5-((1-methylethyl)sulfonamido)tetrahydro-2H-pyran-2-yl)methyl)-2,7-diazaspiro[3.5]nonan-2-yl)pyrimidin-5-yl)oxy)benzamide]", "values": [{"measurement": "EC50", "value": "< 50", "unit": "nM"}, {"measurement": "Ki", "value": "< 1", "unit": "nM"}]}
{"smiles": "CC(C)N(C(=O)c1cc(F)ccc1Oc1cncnc1N1CC2(CCN(C[C@@H]3CC[C@@H](NS(=O)(=O)C4COC4)CO3)CC2)C1)C1CC1", "note": "[Compound 22, N-cyclopropyl-5-fluoro-N-isopropyl-2-((4-(7-(((2S,5R)-5-(oxetane-3-sulfonamido)tetrahydro-2H-pyran-2-yl)methyl)-2,7-diazaspiro[3.5]nonan-2-yl)pyrimidin-5-yl)oxy)benzamide]", "values": [{"measurement": "EC50", "value": "< 50", "unit": "nM"}, {"measurement": "Ki", "value": "< 1", "unit": "nM"}]}
{"smiles": "C[C@@H]1COC[C@H](C)N1C(=O)c1cc(F)ccc1Oc1cncnc1N1CC2(CCN(C[C@@H]3CC[C@@H](NS(C)(=O)=O)CO3)CC2)C1", "note": "[Compound 23, N-((3R,6S)-6-((2-(5-(2-((3S,5R)-3,5-dimethylmorpholine-4-carbonyl)-4-fluorophenoxy)pyrimidin-4-yl)-2,7-diazaspiro[3.5]nonan-7-yl)methyl)tetrahydro-2H-pyran-3-yl)methanesulfonamide]", "values": [{"measurement": "EC50", "value": "< 50", "unit": "nM"}, {"measurement": "Ki", "value": "< 1", "unit": "nM"}]}
{"smiles": "CCS(=O)(=O)N[C@@H]1CC[C@@H](CN2CCC3(CC2)CN(c2ncncc2Oc2ccc(F)cc2C(=O)N2[C@H](C)COC[C@@H]2C)C3)OC1", "note": "[Compound 24, N-((3R,6S)-6-((2-(5-(2-((3S,5R)-3,5-dimethylmorpholine-4-carbonyl)-4-fluorophenoxy)pyrimidin-4-yl)-2,7-diazaspiro[3.5]nonan-7-yl)methyl)tetrahydro-2H-pyran-3-yl)ethanesulfonamide]", "values": [{"measurement": "EC50", "value": "< 50", "unit": "nM"}, {"measurement": "Ki", "value": "< 1", "unit": "nM"}]}
{"smiles": "CC(C)S(=O)(=O)N[C@@H]1CC[C@@H](CN2CCC3(CC2)CN(c2ncncc2Oc2ccc(F)cc2C(=O)N2[C@H](C)COC[C@@H]2C)C3)OC1", "note": "[Compound 25, N-((3R,6S)-6-((2-(5-(2-((3S,5R)-3,5-dimethylmorpholine-4-carbonyl)-4-fluorophenoxy)pyrimidin-4-yl)-2,7-diazaspiro[3.5]nonan-7-yl)methyl)tetrahydro-2H-pyran-3-yl)propane-2-sulfonamide]", "values": [{"measurement": "EC50", "value": "< 50", "unit": "nM"}, {"measurement": "Ki", "value": "< 1", "unit": "nM"}]}
{"smiles": "C[C@@H]1COC[C@H](C)N1C(=O)c1cc(F)ccc1Oc1cncnc1N1CC2(CCN(C[C@@H]3CC[C@@H](NS(=O)(=O)C4CC4)CO3)CC2)C1", "note": "[Compound 26, N-((3R,6S)-6-((2-(5-(2-((3S,5R)-3,5-dimethylmorpholine-4-carbonyl)-4-fluorophenoxy)pyrimidin-4-yl)-2,7-diazaspiro[3.5]nonan-7-yl)methyl)tetrahydro-2H-pyran-3-yl)cyclopropanesulfonamide]", "values": [{"measurement": "EC50", "value": "< 50", "unit": "nM"}, {"measurement": "Ki", "value": "< 1", "unit": "nM"}]}
